For one data set, the target named is T1, AM1R (Homo sapiens, UniProt O60895+Q16602).
T1 construct: EYFP; ECFP; expressed in transfected cells; host or cells: HEK-293 (transient co-transfection)
The experiment in a line: Activity determination in vitro: cAMP/CRE-luciferase reporter assay in HEK293 cells transiently co-transfected with CLR and RAMP2. The class given is cell-based. The note with it: for Emax: HEK293, normalized to [G14]ADM(14-52); for EC50: HEK293 with CLR/RAMP2, CRE-luciferase, 3 h stimulation. An outline of the steps:
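HEK-293 cells transiently co-transfected with CLR-EYFP, RAMP2-ECFP and a CRE-luc2P reporter, stimulated 3 h at 37° C with eight ligand concentrations in triplicate. Luminescence read by ONE-Glo, corrected to 5 μM forskolin, normalized to [G14]ADM(14-52) standard, and fitted by non-linear regression.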
In general terms: Reporter assays use an easily measured gene product as a stand-in for the process of interest.

Data set [1] in a line: Stability determination of TAMRA-labelled adrenomedullin analogues in human blood plasma. The class given is in vitro ADME. The note with it: 37° C., 10^-5 M, slow-decay phase half-life, read-out: t1/2 (slow) (converted). Here is the method:
The stability of the peptides was investigated using fluorescently labeled analogues, which were prepared as described above.
The TAMRA-labeled analogues were dissolved in 1.5 m1 of human blood plasma to a concentration of 10^−5 M and incubated at 37° C. under constant shaking. Samples of 150 μl were taken at different time points and precipitated with 300 μl Ethanol/ACN (1:1) for at least 1 h at −20° C. After centrifugation for 30 s at 12000 rpm, the supernatant was collected and incubated at −20° C. for at least 3 h. Subsequently, it was transferred into Costar® Spin-X® Centrifuge Tube Filters (0.22 μm) and centrifuged for 1 h at 12000 rpm. The samples were analyzed by RP-HPLC using a VariTide RPC column (Agilent Technologies, 250 mm×4.6 mm, […], 200 Å) with linear gradients of 0.1% TFA in water and 0.08% TFA in ACN; fluorescence measurement (λex=525 nm; λem=572 nm) was used for the detection of the analogues and their N-terminal fragments. The percentage of intact peptide was determined by peak integration. The values of peaks containing additional cleavage fragments were corrected by comparing intensities of cleavage fragments and intact peptide using MALDI-MS analysis (UltraflexIII, Bruker). The stability of the peptides was calculated with GraphPad Prism 5 (GraphPad Software) using a two phase exponential decay function for the determination of slow-decay phase half-lives (ln(2)/Kslow; Kslow: rate constant of slow part of exponential decay).

Positions of bridges follow the written chain, without caps; N, C: chain ends. Non-standard residues stand in square brackets, D forms with d. Residues, ends and D or L forms follow the SMILES beside them. *: point of attachment. C18 diacid = O=C(O)CCCCCCCCCCCCCCCCC(=O)*; PEG3 = NCCOCCOCCOCCC(=O)O; Dap = NC[C@H](N)C(=O)O

T1 sequence (Q16602 23-461): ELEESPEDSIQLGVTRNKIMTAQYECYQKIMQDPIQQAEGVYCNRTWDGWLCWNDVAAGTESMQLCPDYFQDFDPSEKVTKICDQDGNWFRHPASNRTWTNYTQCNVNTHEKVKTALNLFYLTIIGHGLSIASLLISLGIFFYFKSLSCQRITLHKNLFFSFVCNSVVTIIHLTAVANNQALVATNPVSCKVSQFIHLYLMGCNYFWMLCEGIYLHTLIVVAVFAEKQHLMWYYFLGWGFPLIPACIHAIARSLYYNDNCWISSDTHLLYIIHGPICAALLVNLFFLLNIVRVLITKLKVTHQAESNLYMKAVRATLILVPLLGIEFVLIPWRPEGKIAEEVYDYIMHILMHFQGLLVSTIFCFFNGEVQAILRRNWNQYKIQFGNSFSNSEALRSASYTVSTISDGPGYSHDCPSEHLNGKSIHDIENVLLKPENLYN
T1 sequence (O60895 43-175): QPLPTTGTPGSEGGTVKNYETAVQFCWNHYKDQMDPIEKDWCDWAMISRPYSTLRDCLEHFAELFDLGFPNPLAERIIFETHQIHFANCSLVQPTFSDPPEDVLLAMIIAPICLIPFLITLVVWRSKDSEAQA

Consider `CC[C@H](C)[C@H](NC(=O)[C@H](CCC(N)=O)NC(=O)[C@H](Cc1c[nH]cn1)NC(=O)[C@H](C)NC(=O)[C@H](CC(C)C)NC(=O)[C@H](CCCCN)NC(=O)[C@H](CCC(N)=O)NC(=O)[C@@H](NC(=O)[C@@H](NC(=O)[C@@H]1CSSC[C@H](NC(=O)CNC(=O)[C@@H](N)CCCCNC(=O)CCCCCCCCCCCCCCCCC(=O)O)C(=O)N[C@@H](CCCNC(=N)N)C(=O)N[C@@H](Cc2ccccc2)C(=O)NCC(=O)N[C@@H]([C@@H](C)O)C(=O)N1)[C@@H](C)O)C(C)C)C(=O)N[C@@H](Cc1ccc(O)cc1)C(=O)N[C@@H](CCC(N)=O)C(=O)N[C@@H](Cc1ccccc1)C(=O)N[C@H](C(=O)NCCOCCOCCOCCC(=O)N[C@@H](CC(=O)O)C(=O)N[C@@H](CC(N)=O)C(=O)N[C@H](C(=O)N[C@@H](C)C(=O)N1CCC[C@H]1C(=O)N[C@H]1CCCCNC(=O)C[C@@H](C(=O)N2CCC[C@H]2C(=O)N[C@@H](CCC(N)=O)C(=O)NCC(=O)N[C@@H](Cc2ccc(O)cc2)C(N)=O)NC(=O)[C@H]([C@@H](C)CC)NC(=O)[C@H](CCCCN)NC(=O)[C@H](CO)NC1=O)C(C)C)[C@@H](C)O` [Example 14] (H-K(C18 diacid)GCRFGTCTVQKLAHQIYQFT[PEG3]DNVAPKSKIDPQGY-NH2; disulfide 3-8; lactam 28-32), for which, on AM1R, the Emax stood at 92 ± 5% and the EC50 came to 6.6 nM.
The like results for `CC[C@H](C)[C@H](NC(=O)[C@H](CCC(N)=O)NC(=O)[C@H](Cc1c[nH]cn1)NC(=O)[C@H](C)NC(=O)[C@H](CC(C)C)NC(=O)[C@H](CCCCN)NC(=O)[C@H](CCC(N)=O)NC(=O)[C@@H](NC(=O)[C@@H](NC(=O)[C@@H]1CCC(=O)NC[C@H](NC(=O)CNC(=O)[C@@H](N)CCCCNC(=O)CCCCCCCCCCCCCCCCC(=O)O)C(=O)N[C@@H](CCCNC(=N)N)C(=O)N[C@@H](Cc2ccccc2)C(=O)NCC(=O)N[C@@H]([C@@H](C)O)C(=O)N1)[C@@H](C)O)C(C)C)C(=O)N[C@@H](Cc1ccc(O)cc1)C(=O)N[C@@H](CCC(N)=O)C(=O)N[C@@H](Cc1ccccc1)C(=O)N[C@H](C(=O)N[C@@H](CC(=O)O)C(=O)N[C@@H](CCCCN)C(=O)N[C@@H](CC(=O)O)C(=O)N[C@@H](CCCCN)C(=O)N[C@@H](CC(=O)O)C(=O)N[C@@H](CC(N)=O)C(=O)N[C@H](C(=O)N[C@@H](C)C(=O)N1CCC[C@H]1C(=O)N[C@@H](CCCNC(=N)N)C(=O)N[C@@H](CO)C(=O)N[C@@H](CCCCN)C(=O)N[C@H](C(=O)N[C@@H](CO)C(=O)N1CCC[C@H]1C(=O)N[C@@H](CCC(N)=O)C(=O)NCC(=O)N[C@@H](Cc1ccc(O)cc1)C(N)=O)[C@@H](C)CC)C(C)C)[C@@H](C)O` [Example 15, ((3S,9S,12S,15S,21S)-15-(2-((S)-2-amino-6-(17-carboxyoctadecanamido)hexanamido)acetamido)-9-benzyl-12-(3-guanidinopropyl)-3-((R)-1-hydroxyethyl)-2,5,8,11,14,18-hexaoxo-1,4,7,10,13,17-hexaazacyclohenicosane-21-carbonyl)-L-threonyl-ADM(23-52)] (H-K(C18 diacid)G[Dap]RFGTETVQKLAHQIYQFTDKDKDNVAPRSKISPQGY-NH2; lactam 3-8) were, in that order, 89 ± 2% and 3.4 nM.
In the case of `CC[C@H](C)[C@H](NC(=O)[C@H](CCC(N)=O)NC(=O)[C@H](Cc1c[nH]cn1)NC(=O)[C@H](C)NC(=O)[C@H](CC(C)C)NC(=O)[C@H](CCCCN)NC(=O)[C@H](CCC(N)=O)NC(=O)[C@@H](NC(=O)[C@@H](NC(=O)[C@@H]1CCC(=O)NC[C@H](NC(=O)CNC(=O)[C@@H](N)CCCCNC(=O)CCCCCCCCCCCCCCCCC(=O)O)C(=O)N[C@@H](CCCNC(=N)N)C(=O)N[C@@H](Cc2ccccc2)C(=O)NCC(=O)N[C@@H]([C@@H](C)O)C(=O)N1)[C@@H](C)O)C(C)C)C(=O)N[C@@H](Cc1ccc(O)cc1)C(=O)N[C@@H](CCC(N)=O)C(=O)N[C@@H](Cc1ccccc1)C(=O)N[C@H](C(=O)N[C@@H](CC(=O)O)C(=O)N[C@@H](CCCCN)C(=O)N[C@@H](CC(=O)O)C(=O)N[C@@H](CCCCN)C(=O)N[C@@H](CC(=O)O)C(=O)N[C@@H](CC(N)=O)C(=O)N[C@H](C(=O)N[C@@H](C)C(=O)N1CCC[C@H]1C(=O)N[C@H]1CCCCNC(=O)C[C@@H](C(=O)N2CCC[C@H]2C(=O)N[C@@H](CCC(N)=O)C(=O)NCC(=O)N[C@@H](Cc2ccc(O)cc2)C(N)=O)NC(=O)[C@H]([C@@H](C)CC)NC(=O)[C@H](CCCCN)NC(=O)[C@H](CO)NC1=O)C(C)C)[C@@H](C)O` [Example 16] (H-K(C18 diacid)G[Dap]RFGTETVQKLAHQIYQFTDKDKDNVAPKSKIDPQGY-NH2; lactam 3-8, 31-35), at AM1R, the Emax worked out at 100 ± 5% and the EC50 came to 1.4 nM.
At AM1R, `CC[C@H](C)[C@H](NC(=O)[C@H](CCC(N)=O)NC(=O)[C@H](Cc1c[nH]cn1)NC(=O)[C@H](C)NC(=O)[C@H](CC(C)C)NC(=O)[C@H](CCCCN)NC(=O)[C@H](CCC(N)=O)NC(=O)[C@@H](NC(=O)[C@@H](NC(=O)[C@@H]1CCC(=O)NC[C@H](NC(=O)CNC(=O)[C@@H](N)CCCCNC(=O)CCCCCCCCCCCCCCCCC(=O)O)C(=O)N[C@@H](CCCNC(=N)N)C(=O)N[C@@H](Cc2ccccc2)C(=O)NCC(=O)N[C@@H]([C@@H](C)O)C(=O)N1)[C@@H](C)O)C(C)C)C(=O)N[C@@H](Cc1ccc(O)cc1)C(=O)N[C@@H](CCC(N)=O)C(=O)N[C@@H](Cc1ccccc1)C(=O)N[C@H](C(=O)NCCOCCOCCOCCC(=O)N[C@@H](CC(=O)O)C(=O)N[C@@H](CC(N)=O)C(=O)N[C@H](C(=O)N[C@@H](C)C(=O)N1CCC[C@H]1C(=O)N[C@H]1CCCCNC(=O)C[C@@H](C(=O)N2CCC[C@H]2C(=O)N[C@@H](CCC(N)=O)C(=O)NCC(=O)N[C@@H](Cc2ccc(O)cc2)C(N)=O)NC(=O)[C@H]([C@@H](C)CC)NC(=O)[C@H](CCCCN)NC(=O)[C@H](CO)NC1=O)C(C)C)[C@@H](C)O` [Example 17] (H-K(C18 diacid)G[Dap]RFGTETVQKLAHQIYQFT[PEG3]DNVAPKSKIDPQGY-NH2; lactam 3-8, 28-32) had an Emax of 77 ± 3% and an EC50 of 5 nM.
Regarding `CC[C@H](C)[C@H](NC(=O)[C@H](CCC(N)=O)NC(=O)[C@H](Cc1c[nH]cn1)NC(=O)[C@H](C)NC(=O)[C@H](CC(C)C)NC(=O)[C@H](CCCCN)NC(=O)[C@H](CCC(N)=O)NC(=O)[C@@H](NC(=O)[C@@H](NC(=O)[C@@H]1CSSC[C@H](NC(=O)CNC(=O)CN)C(=O)N[C@@H](CCCNC(=N)N)C(=O)N[C@@H](Cc2ccccc2)C(=O)NCC(=O)N[C@@H]([C@@H](C)O)C(=O)N1)[C@@H](C)O)C(C)C)C(=O)N[C@@H](Cc1ccc(O)cc1)C(=O)N[C@@H](CCC(N)=O)C(=O)N[C@@H](Cc1ccccc1)C(=O)N[C@H](C(=O)N[C@@H](CC(=O)O)C(=O)N[C@@H](CCCCN)C(=O)N[C@@H](CC(=O)O)C(=O)N[C@@H](CCCCN)C(=O)N[C@@H](CC(=O)O)C(=O)N[C@@H](CC(N)=O)C(=O)N[C@H](C(=O)N[C@@H](C)C(=O)N1CCC[C@H]1C(=O)N[C@@H](CCCNC(=N)N)C(=O)N[C@@H](CO)C(=O)N[C@@H](CCCCN)C(=O)N[C@H](C(=O)N[C@@H](CO)C(=O)N1CCC[C@H]1C(=O)N[C@@H](CCC(N)=O)C(=O)NCC(=O)N[C@@H](Cc1ccc(O)cc1)C(N)=O)[C@@H](C)CC)C(C)C)[C@@H](C)O` [Reference, reference compound], at AM1R, the Emax came out at 99 ± 1% and the EC50 stood at 3.5 nM.
`CC[C@H](C)[C@H](NC(=O)[C@H](CCC(N)=O)NC(=O)[C@H](Cc1c[nH]cn1)NC(=O)[C@H](C)NC(=O)[C@H](CC(C)C)NC(=O)[C@H](CCCCN)NC(=O)[C@H](CCC(N)=O)NC(=O)[C@@H](NC(=O)[C@@H](NC(=O)[C@@H]1CSSC[C@H](NC(=O)CNC(=O)[C@H](CCCCNC(=O)CCCCCCCCCCCCCCCCC(=O)O)NC(=O)c2ccc3c(c2)C2(OC3=O)c3ccc(N(C)C)cc3Oc3cc(N(C)C)ccc32)C(=O)N[C@@H](CCCNC(=N)N)C(=O)N[C@@H](Cc2ccccc2)C(=O)NCC(=O)N[C@@H]([C@@H](C)O)C(=O)N1)[C@@H](C)O)C(C)C)C(=O)N[C@@H](Cc1ccc(O)cc1)C(=O)N[C@@H](CCC(N)=O)C(=O)N[C@@H](Cc1ccccc1)C(=O)N[C@H](C(=O)N[C@@H](CC(=O)O)C(=O)N[C@@H](CCCCN)C(=O)N[C@@H](CC(=O)O)C(=O)N[C@@H](CCCCN)C(=O)N[C@@H](CC(=O)O)C(=O)N[C@@H](CC(N)=O)C(=O)N[C@H](C(=O)N[C@@H](C)C(=O)N1CCC[C@H]1C(=O)N[C@@H](CCCNC(=N)N)C(=O)N[C@@H](CO)C(=O)N[C@@H](CCCCN)C(=O)N[C@H](C(=O)N[C@@H](CO)C(=O)N1CCC[C@H]1C(=O)N[C@@H](CCC(N)=O)C(=O)NCC(=O)N[C@@H](Cc1ccc(O)cc1)C(N)=O)[C@@H](C)CC)C(C)C)[C@@H](C)O` [TAM-5]: the half-life in data set [1] is 6.21 days.

The Emax is the size of the effect at its maximum, as opposed to the concentration needed. For orientation: EC50 means the midpoint of the concentration-response curve. A low value points to greater potency.

The values above are taken from patent US20220387608A1, “ADRENOMEDULLIN-ANALOGUES FOR LONG-TERM STABILIZATION AND THEIR USE” (Bayer Aktiengesellschaft, priority 2019, published 2022).
